From ChEMBL document CHEMBL3352145, “Structure-based design of novel human Pin1 inhibitors (III): optimizing affinity beyond the phosphate recognition pocket” (Bioorg Med Chem Lett, 2014)
Values after ≈ are worked out from the molar mass of the structure shown. Each block holds one compound with its values, some of them ahead of it. Active and inactive are the calls of the source. The calls are words filed in the database; no cut-off is given here.

Assays:
HT-29 [1] = assay: Antiproliferative activity against human HT-29 cells; type: functional, cell-based
[2] = molecular target: Peptidyl-prolyl cis-trans isomerase NIMA-interacting 1 (Homo sapiens, UniProt Q13526); assay: Inhibition of Pin1 (unknown origin)
Sequence of Peptidyl-prolyl cis-trans isomerase NIMA-interacting 1 (Q13526 whole entry): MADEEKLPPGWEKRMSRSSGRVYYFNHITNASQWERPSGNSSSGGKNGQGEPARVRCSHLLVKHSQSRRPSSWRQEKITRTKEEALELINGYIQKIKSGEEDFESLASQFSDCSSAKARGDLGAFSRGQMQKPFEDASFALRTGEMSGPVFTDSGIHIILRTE

[3] = Dissociation constant, pKa of the compound; type: physicochemical
[4] = Aqueous solubility of the compound; type: physicochemical; conditions: buffer
[5] = Lipophilicity, log P of the compound; type: physicochemical; conditions: octanol/water
HT-29 [6] = assay: Induction of histological changes in human HT-29 cells assessed as fragmented phenotype at 50 uM by DAPI staining; type: functional, cell-based
HT-29 [7] = assay: Cell cycle arrest in human HT-29 cells assessed as cells accumulation at G2/M phase at 50 uM by FACS analysis (reference value: 6.2%); type: functional
HT-29 [8] = assay: Cell cycle arrest in human HT-29 cells assessed as cells accumulation at G0/G1 phase at 50 uM by FACS analysis (reference value: 56.9%); type: functional
HT-29 [9] = assay: Cell cycle arrest in human HT-29 cells assessed as cells accumulation at S phase at 50 uM by FACS analysis (reference value: 37%); type: functional
HT-29 [10] = assay: Cell cycle arrest in human HT-29 cells assessed as cells accumulation at sub G1 phase at 50 uM by FACS analysis (Rvb =<1%); type: functional

SMILES: O=C(O)C1(Cc2cc3ccc(F)cc3[nH]2)CSC(CCc2c(Cl)cccc2Cl)=N1 (racemic)
IC50 (HT-29 [1]): 4.6 µM
Ki [2]: 0.196 µM

SMILES: Cc1ccc2[nH]c(C[C@@H](NC(=O)c3cc4ccccc4s3)C(=O)O)nc2c1
Ki [2]: 0.424 µM

SMILES: O=C(CC1c2ccccc2-c2ccccc21)N[C@H](Cc1cc2ccc(F)cc2[nH]1)C(=O)O
pKa [3]: 3.9
Ki [2]: 0.012 µM
solubility [4]: > 100 µg/mL
logP [5]: 3.6

SMILES: O=C(O)C1(Cc2cc3ccc(F)cc3[nH]2)CSC(c2ccc3ccccc3c2)=N1 (racemic)
IC50 (HT-29 [1]): 27 µM
Activity (HT-29 [6]): Active
Ki [2]: 1.36 µM
Activity (HT-29 [7]): 71.1%
Activity (HT-29 [8]): 10.2%
Activity (HT-29 [9]): 18.7%
Activity (HT-29 [10]): 5%

SMILES: O=C(CCc1c(Cl)cccc1Cl)N[C@H](Cc1cc2ccc(F)cc2[nH]1)C(=O)O
pKa [3]: 3.9
Ki [2]: 0.075 µM
solubility [4]: > 100 µg/mL
logP [5]: 3.5

SMILES: O=C(O)C1(Cc2cc3ccc(F)cc3[nH]2)CSC(/C=C/c2c(Cl)cccc2Cl)=N1 (racemic)
IC50 (HT-29 [1]): 1.9 µM
Ki [2]: 0.58 µM

SMILES: O=C(N[C@H](Cc1nc2cc(F)ccc2[nH]1)C(=O)O)c1cc2ccccc2s1
Ki [2]: 0.076 µM

SMILES: O=C(Cc1cccc2ccccc12)N[C@H](Cc1cc2ccc(F)cc2[nH]1)C(=O)O
pKa [3]: 3.91
Ki [2]: 0.4 µM
solubility [4]: 106 µg/mL (≈ 272 µM)
logP [5]: 2.49

SMILES: O=C(O)C1(Cc2cc3ccc(F)cc3[nH]2)CSC(CC2c3ccccc3-c3ccccc32)=N1 (racemic)
IC50 (HT-29 [1]): 4.2 µM
Ki [2]: 0.32 µM

Second part, the compound after the results:

Ki [2]: 10 µM
SMILES: O=C(NC(Cc1cc2ccccc2o1)C(=O)O)c1ccc2ccccc2c1 (centres undefined)

pKa [3]: 3.92
Ki [2]: 0.138 µM
solubility [4]: > 120 µg/mL
logP [5]: 2.59
SMILES: O=C(N[C@H](Cc1cc2ccc(F)cc2[nH]1)C(=O)O)c1ccc2ccccc2c1

Ki [2]: 0.08 µM
SMILES: O=C(N[C@H](Cc1nc2cc(F)ccc2[nH]1)C(=O)O)c1ccc2ccccc2c1

Ki [2]: 0.78 µM
SMILES: Cc1ccc2[nH]c(C[C@@H](NC(=O)c3ccc4ccccc4c3)C(=O)O)nc2c1

Ki [2]: 0.173 µM
SMILES: O=C(N[C@H](Cc1nc2cc(Cl)ccc2[nH]1)C(=O)O)c1ccc2ccccc2c1

Ki [2]: 1 µM
SMILES: O=C(NC(Cc1nc2ccccc2[nH]1)C(=O)O)c1ccc2ccccc2c1 (racemic)

Ki [2]: 46 µM
SMILES: O=C(N[C@H](Cc1nc2ccccc2s1)C(=O)O)c1ccc2ccccc2c1

Ki [2]: 1.9 µM
SMILES: O=C(NC(Cc1cc2ccccc2[nH]1)C(=O)O)c1ccc2ccccc2c1 (centres undefined)

Ki [2]: 0.189 µM
SMILES: O=C(N[C@H](Cc1nc2cc(Cl)ccc2[nH]1)C(=O)O)c1cc2ccccc2s1
